Drawing on patent US20110015371A1 (Vertex Pharmaceuticals Incorporated, priority 1994, published 2011), this text covers IC50 and Ki for 17 compounds.

Each structure is given as a SMILES string. pIC50, pKi: −log10 of the molar value. Bounds are passed on as bounds.

The subject of experiment [1] is Human Peripheral Blood Mononuclear Cells (PBMC) or Enriched Adherent Mononuclear Cells. Nature of the experiment: Cell assay: IL-1β assay with human PBMC or enriched adherent mononuclear cells. Format: cell-based. As to conditions: LPS-stimulated cells, mature IL-1β in supernatant by ELISA. The source says:
IL-1β Assay with a Mixed Population of Human Peripheral Blood Mononuclear Cells (PBMC) or Enriched Adherent Mononuclear Cells
Processing of pre-IL-1S by ICE can be measured in cell culture using a variety of cell sources. Human PBMC obtained from healthy donors provides a mixed population of lymphocyte subtypes and mononuclear cells that produce a spectrum of interleukins and cytokines in response to many classes of physiological stimulators. Adherent mononuclear cells from PBMC provides an enriched source of normal monocytes for selective studies of cytokine production by activated cells.
An initial dilution series of test compound in DMSO or ethanol is prepared, with a subsequent dilution into RPMI-10% FBS media (containing 2 mM L-glutamine, 10 mM HEPES, 50 U and 50 ug/ml pen/strep) respectively to yield drugs at 4× the final test concentration containing 0.4% DMSO or 0.4% ethanol. The final concentration of DMSO is 0.1% for all drug dilutions. A concentration titration which brackets the apparent Ki for a test compound determined in an ICE inhibition assay is generally used for the primary compound screen.
We generally test 5-6 compound dilutions and have performed the cellular component of the assay in duplicate, with duplicate ELISA determinations on each cell culture supernatant.
Buffy coat cells isolated from one pint human blood (yielding 40-45 ml final volume plasma plus cells) are diluted with media to 80 ml and LeukoPREP separation tubes (Becton Dickinson) are each overlaid with 10 ml of cell suspension. After 15 min centrifugation at 1500-1800×g, the plasma/media layer is aspirated and then the mononuclear cell layer is collected with a Pasteur pipette and transferred to a 15 ml conical centrifuge tube (Corning). Media is added to bring the volume to 15 ml, gently mix the cells by inversion and centrifuge at 300×g for 15 min. Resuspend the PBMC pellet in a small volume of media, count cells and adjust to 6×10^6 cells/ml.
For the cellular assay, add 1.0 ml of the cell suspension to each well of a 24-well flat bottom tissue culture plate (Corning), 0.5 ml test compound dilution and 0.5 ml LPS solution (Sigma #L-3012; 20 ng/ml solution prepared in complete RPMI media; final LPS concentration 5 ng/ml). The 0.5 ml additions of test compound and LPS are usually sufficient to mix the contents of the wells. Three control mixtures are run per experiment, with either LPS alone, solvent vehicle control, and/or additional media to adjust the final culture volume to 2.0 ml. The cell cultures are incubated for 16-18 hr at 37° C. in the presence of 5% CO2.
At the end of the incubation period, cells are harvested and transferred to 15 ml conical centrifuge tubes. After centrifugation for 10 min at 200×g, supernatants are harvested and transferred to 1.5 ml Eppendorf tubes. It may be noted that the cell pellet may be utilized for a biochemical evaluation of pre-IL-1S and/or mature IL-1β content in cytosol extracts by western blotting or ELISA with pre-IL-1β specific antisera.
PBMC are isolated and prepared as described above. Media (1.0 ml) is first added to wells followed by 0.5 ml of the PBMC suspension. After a one hour incubation, plates are gently shaken and nonadherent cells aspirated from each well. Wells are then gently washed three times with 1.0 ml of media and final resuspended in 1.0 ml media. The enrichment for adherent cells generally yields 2.5−3.0×10^5 cells per well. The addition of test compounds, LPS, cell incubation conditions and processing of supernatants proceeds as described above.
We have used Quantikine kits (R&D Systems) for measurement of mature IL-1β. Assays are performed according to the manufacturer's directions. Mature IL-1β levels of about 1-3 ng/ml in both PBMC and adherent mononuclear cell positive controls are observed. ELISA assays are performed on 1:5, 1:10 and 1:20 dilutions of supernatants from LPS-positive controls to select the optimal dilution for supernatants in the test panel.
Background: In an ELISA, binding on a coated surface is turned into a signal by an enzyme label.

The target in another experiment is T1, ICE (Homo sapiens, UniProt P29466).
T1 sequence (P29466 120-297 limits assumed): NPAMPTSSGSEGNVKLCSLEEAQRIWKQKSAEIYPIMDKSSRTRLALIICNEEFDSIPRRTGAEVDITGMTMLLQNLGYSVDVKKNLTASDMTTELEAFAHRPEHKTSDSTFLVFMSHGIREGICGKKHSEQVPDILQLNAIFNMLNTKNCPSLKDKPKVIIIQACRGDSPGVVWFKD
T1 sequence (P29466 317-404 limits assumed): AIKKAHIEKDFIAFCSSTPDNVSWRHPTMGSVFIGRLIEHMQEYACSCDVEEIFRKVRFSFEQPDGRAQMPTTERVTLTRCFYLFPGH
Nature of the experiment: Enzyme assay with UV-visible substrate (Succinyl-Tyr-Val-Ala-Asp-pNitroanilide). Format: biochemical. The protocol:
1. Enzyme Assay with UV-Visible Substrate
This assay is run using an Succinyl-Tyr-Val-Ala-Asp-pNitroanilide substrate. Synthesis of analogous substrates is described by L. A. Reiter (Int. J. Peptide Protein Res. 43, 87-96 (1994)). The assay mixture contains:
The visible ICE assay is run in a 96-well microtiter plate. Buffer, ICE and DMSO (if inhibitor is present) are added to the wells in the order listed. The components are left to incubate at room temperature for 15 minutes starting at the time that all components are present in all wells. The microtiter plate reader is set to incubate at 37° C. After the 15 minute incubation, substrate is added directly to the wells and the reaction is monitored by following the release of the chromophore (pNA) at 405-603 nm at 37° C. for 20 minutes. A linear fit of the data is performed and the rate is calculated in mOD/min. DMSO is only present during experiments involving inhibitors, buffer is used to make up the volume to 100 μl in the other experiments.
For determination of enzyme inhibition constants (Ki) or the mode of inhibition (competitive, uncompetitive or noncompetitive), the rate data determined in the enzyme assays at varying inhibitor concentrations are computer-fit to standard enzyme kinetic equations (see I. H. Segel, Enzyme Kinetics, Wiley-Interscience, 1975).

[2] abbreviates: Homo sapiens, PBMC, Example 4 table.
Setting [3] is: Homo sapiens, PBMC, Example 6 table.

As a reminder, the pIC50 is the negative decadic logarithm of the IC50, by convention in mol/L. By pKi is commonly meant the negative decadic logarithm of the Ki, by convention in mol/L. Take `O=C[C@H](CC(=O)O)NC(=O)[C@@H]1CCCN2C(=O)CC[C@H](NC(=O)CCc3ccccc3)C(=O)N12` [Compound 47a, [3S, (1S,9S)]3-(6,10-Dioxo-octahydro-9-(3-phenylpropionylamino)-6H-pyridazino[1,2-a][1,2]diazepine-1-carboxamido)-4-oxobutanoic acid]: the pIC50 in experiment [1] (setting [2]) is 5.68. The pKi on ICE (Example 4 table) was 7.72.

For `O=C[C@H](CC(=O)O)NC(=O)Cn1c(CCc2ccccc2)ccc(NC(=O)CCc2ccccc2)c1=O` [Compound 54c, 3(S)3-(1,2-Dihydro-2-oxo-6-phenethyl-3(3-phenyl-propionyl)amino-1-pyridyl)acetylamino-4-oxobutanoic acid], the pIC50 in experiment [1] (setting [2]) is less than 4.72. The pKi on ICE (Example 4 table) was 5.92.

As to `CC(=O)N[C@@H](Cc1ccc(O)cc1)C(=O)Nc1ccc(Cc2ccccc2)n(CC(=O)N[C@H](C=O)CC(=O)O)c1=O` [Compound 54i, 3(S)3-(3-(2-Acetyl-L-tyrosinyl)amino-6-benzyl-1,2-dihydro-2-oxo-1-pyridyl)acetylamino-4-oxobutanoic acid], the pIC50 in experiment [1] (setting [2]) is 5.62. The negative logarithm of the Ki (pKi) at ICE (Example 4 table) was 7.27.

In the case of `O=C[C@H](CC(=O)O)NC(=O)Cn1c(Cc2ccccc2)ccc(NC(=O)CCCc2ccccc2)c1=O` [Compound 54l, 3(S)3-(6-Benzyl-1,2-dihydro-2-oxo-3-(4-phenylbutyryl)carbonylamino-1-pyridyl)acetylamino-4-oxobutanoic acid], the pIC50 in experiment [1] (Example 4 table) is 5.15. The pKi on ICE (Example 4 table) is 6.67.

In the case of `CC(C)[C@H](NC(=O)OCc1ccccc1)C(=O)N[C@@H](C)C(=O)N[C@@H](CC(=O)O)C(=O)c1nc2ccccc2o1` [Compound 63, (3S)N-(N-Benzyloxycarbonyl-(S)-valinyl-(S)-alaninyl)-3-amino-4-(2-benzoxazolyl)-4-oxobutanoate], the pIC50 in experiment [1] (Example 4 table) is 5.39. For the same compound, on ICE (Example 4 table), the pKi was 6.07.

Take `COc1cccc2nc(C(=O)[C@H](CC(=O)O)NC(=O)[C@H](C)NC(=O)[C@@H](NC(=O)[C@H](Cc3ccc(O)cc3)NC(C)=O)C(C)C)oc12` [Compound 69a, (3S)N-(N-Acetyl-(S)-tyrosinyl-(S)-valinyl-(S)-alaninyl)-3-amino-4-(2-(7-methoxybenzoxazolyl))-4-oxobutanoate]: the pIC50 in experiment [1] (setting [2]) is 6.13. In addition, the pKi at ICE (Example 4 table) was 7.96.

For the compound `COc1cccc2nc(C(=O)[C@H](CC(=O)O)NC(=O)[C@@H]3C[C@@H](Oc4ccccc4)CN3C(=O)[C@@H](NC(C)=O)C(C)C)oc12` [Compound 86, N-Acetyl-(S)-valinyl-(4-(S)-phenoxy)prolinyl-3(S)-amino-4-(7-methoxybenzoxazol-2-yl)-4-oxo-butanoic acid], the pIC50 in experiment [1] (setting [3]) is 5.40. The compound further showed a pKi on ICE (Example 6 table) of 6.76.

Turning to `COc1cccc2nc(C(=O)[C@H](CC(=O)O)NC(=O)[C@@H]3C[C@@H](Oc4ccccc4)CN3C(C)=O)oc12` [Compound 87, N-Acetyl(4-(R)-phenoxy)prolinyl-3(S)-amino-4-(7-methoxybenzoxazol-2-yl)-4-oxo-butanoic acid], in experiment [1] (setting [3]), the pIC50 is 4.46. In addition, the pKi on ICE (Example 6 table) is 5.14.

On to `O=C(O)C[C@H](NC(=O)Cn1c(Cc2ccccc2)ccc(NC(=O)CCc2ccccc2)c1=O)C(=O)COCc1ccccc1Cl` [Compound 90, N-2-(6-Benzyl-1,2-dihydro-2-oxo-3-(3-phenylpropionyl)amino-1-pyridyl)acetyl-3-amino-5-(2-chlorobenzyloxy)-4-oxo-pentanoic acid], for which, in experiment [1] (setting [3]), the pIC50 is 5.21. The pKi at ICE (Example 6 table) is 6.38.

The compound `O=C(O)C[C@H](NC(=O)Cn1c(Cc2ccccc2)ccc(NC(=O)CCc2ccccc2)c1=O)C(=O)c1ncc(-c2c(Cl)cccc2Cl)s1` [Compound 91] had a pIC50 in experiment [1] (setting [3]) of less than 4.60. Moreover, at ICE (Example 6 table), the pKi was 6.59.

As for `O=C[C@H](CC(=O)O)NC(=O)[C@@H]1CCc2ncc(NC(=O)CCc3ccccc3)c(=O)n21` [Compound 98, 4-Oxo-(3S)-{[4-oxo-3-(3-phenyl-propionylamino)-4,6,7,8-tetrahydro-pyrrolo[1,2-a]pyrimidine-(6S)-carbonyl]-amino}-butyric acid], the pIC50 in experiment [1] (setting [3]) was 5.40. The compound further showed a pKi on ICE (Example 6 table) of 6.27.

Take `COc1cccc2nc(C(=O)[C@H](CC(=O)O)NC(=O)[C@@H]3CCc4ncc(NC(=O)CCc5ccccc5)c(=O)n43)oc12` [Compound 102b, 4-(7-methyoxy-benzoxazol-2-yl)-4-oxo-(3S)-{[4-oxo-3-(3-phenyl-propionylamino)-4,6,7,8-tetrahydro-pyrrolo[1,2-a]pyrimidine-(6S)-carbonyl]-amino}-butric acid]: in experiment [1] (setting [3]), the pIC50 is 5.76. This compound also showed a pKi on ICE (Example 6 table) of 6.54.

In turn, `O=C[C@H](CC(=O)O)NC(=O)CN1C(=O)[C@@H](NC(=O)CCc2ccccc2)CNc2ccccc21` [Compound 106a] showed a pIC50 in experiment [1] (setting [3]) of 4.52. For the same compound, the pKi on ICE (Example 6 table) is 5.64.

`O=C[C@H](CC(=O)O)NC(=O)CN1C(=O)[C@@H](NC(=O)CCc2ccccc2)CN(Cc2ccccc2)c2ccccc21` [Compound 106c, 3(S)-{2-[5-Benzyl-2-oxo-3-(3(S)-phenylpropionylamino)-2,3,4,5-tetrahydrobenzo[b][1, 4]diazepin-1-yl]-acetylamino}-4-oxobutyric acid] had a pIC50 in experiment [1] (setting [3]) of less than 4.52. The same compound gave a pKi on ICE (Example 6 table) of 5.42.

The compound `COc1cccc2nc(C(=O)[C@H](CC(=O)O)NC(=O)CN3C(=O)[C@@H](NC(=O)CCc4ccccc4)CN(C(=O)CCc4ccccc4)c4ccccc43)oc12` [Compound 108b, 4-(7-Methoxybenzoxazol-2-yl)-4-oxo-3(S)-{2-[2-oxo-5-(3-phenylpropionyl)-3(S)-(3-phenylpropionylamino)-2,3,4,5-tetrahydrobenzo[b][1,4]diazepin-1-yl]-acetylamino}butyric acid] had a pIC50 in experiment [1] (setting [3]) of 4.60. Also, the pKi at ICE (Example 6 table) was 6.40.

For the compound `O=C(O)C[C@H](NC(=O)Cn1c(Cc2ccccc2)ccc(NC(=O)CCc2ccccc2)c1=O)C(=O)CSCc1ccccc1Cl` [Compound 125a], the pIC50 in experiment [1] (Example 6 table) is less than 4.52. At ICE (Example 6 table), this compound had a pKi of 6.41.

Compound `COc1cccc2nc(C(=O)[C@H](CC(=O)O)NC(=O)[C@H](C)n3cccc(NC(=O)CCc4ccccc4)c3=O)oc12` [Compound 126] had a pIC50 in experiment [1] (setting [3]) of 5.82. The negative-log Ki (pKi) at ICE (Example 6 table) was 6.35.
